Experimental data as given in ChEMBL document CHEMBL5625183, “Discovery of a novel dual-target inhibitor of CDK12 and PARP1 that induces synthetic lethality for treatment of triple-negative breast cancer” (Eur J Med Chem, 2023).

Experiments:
[1] = biological target: Cyclin-dependent kinase 12 (Homo sapiens, UniProt Q9NYV4); test: Inhibition of CDK12 (unknown origin) at 1 uM in presence of ATP by kinase-glo plus luminescent assay relative to control
MDA-MB-436 = test: Antiproliferative activity against human MDA-MB-436 cells assessed as inhibition of cell growth incubated for 24 hrs by MTT assay; assay type: functional, cell-based; conditions: Homo sapiens, MDA-MB-436, 24 h
MDA-MB-468 = test: Antiproliferative activity against human MDA-MB-468 cells assessed as inhibition of cell growth incubated for 24 hrs by MTT assay; assay type: functional, cell-based; conditions: MDA-MB-468, 24 h
MDA-MB-231 = test: Antiproliferative activity against human MDA-MB-231 cells assessed as inhibition of cell growth incubated for 24 hrs by MTT assay; assay type: functional, cell-based; conditions: MDA-MB-231, 24 h

Sequence of Cyclin-dependent kinase 12 (Q9NYV4 whole entry, looked up): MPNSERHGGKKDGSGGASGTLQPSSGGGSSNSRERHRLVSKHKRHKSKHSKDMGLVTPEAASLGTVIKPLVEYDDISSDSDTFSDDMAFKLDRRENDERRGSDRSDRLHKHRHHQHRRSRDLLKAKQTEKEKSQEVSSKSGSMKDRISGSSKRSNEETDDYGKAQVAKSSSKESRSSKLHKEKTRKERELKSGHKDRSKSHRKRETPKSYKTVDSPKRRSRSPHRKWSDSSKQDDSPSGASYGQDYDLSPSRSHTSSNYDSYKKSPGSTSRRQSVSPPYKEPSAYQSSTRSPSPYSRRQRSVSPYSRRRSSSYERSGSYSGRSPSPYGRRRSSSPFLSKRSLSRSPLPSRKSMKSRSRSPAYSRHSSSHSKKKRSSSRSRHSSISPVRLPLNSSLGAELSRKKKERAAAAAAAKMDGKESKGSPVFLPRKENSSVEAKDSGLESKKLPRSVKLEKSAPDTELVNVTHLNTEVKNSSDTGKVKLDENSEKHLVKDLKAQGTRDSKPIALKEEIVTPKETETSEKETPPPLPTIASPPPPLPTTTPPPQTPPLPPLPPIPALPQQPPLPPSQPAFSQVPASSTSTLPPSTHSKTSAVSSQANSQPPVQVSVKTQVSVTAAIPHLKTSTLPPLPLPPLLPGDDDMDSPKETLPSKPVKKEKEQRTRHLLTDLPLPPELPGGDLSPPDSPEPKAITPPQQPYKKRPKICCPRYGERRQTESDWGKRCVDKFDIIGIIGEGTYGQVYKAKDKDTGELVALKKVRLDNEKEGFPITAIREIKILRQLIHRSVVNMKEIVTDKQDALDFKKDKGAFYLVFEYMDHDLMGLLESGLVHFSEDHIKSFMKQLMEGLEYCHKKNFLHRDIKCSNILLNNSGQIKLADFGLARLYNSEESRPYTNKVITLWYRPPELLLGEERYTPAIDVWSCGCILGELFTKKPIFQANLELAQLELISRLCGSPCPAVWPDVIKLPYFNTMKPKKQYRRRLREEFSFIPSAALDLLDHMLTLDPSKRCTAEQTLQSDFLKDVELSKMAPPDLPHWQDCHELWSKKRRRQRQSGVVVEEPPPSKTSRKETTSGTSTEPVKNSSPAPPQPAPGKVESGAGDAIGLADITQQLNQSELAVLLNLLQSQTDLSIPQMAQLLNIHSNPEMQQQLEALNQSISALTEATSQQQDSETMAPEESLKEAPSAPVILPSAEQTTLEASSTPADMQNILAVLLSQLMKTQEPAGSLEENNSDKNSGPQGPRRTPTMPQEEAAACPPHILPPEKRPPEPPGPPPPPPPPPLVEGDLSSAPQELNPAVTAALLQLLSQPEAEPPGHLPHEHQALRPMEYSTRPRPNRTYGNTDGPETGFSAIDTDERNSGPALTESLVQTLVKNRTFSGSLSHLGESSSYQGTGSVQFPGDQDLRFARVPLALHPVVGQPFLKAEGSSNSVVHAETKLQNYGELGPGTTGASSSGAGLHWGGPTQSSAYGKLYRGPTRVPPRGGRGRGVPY

inhibition [1] [%]	IC50 (MDA-MB-436) [µM]	IC50 (MDA-MB-468) [µM]	IC50 (MDA-MB-231) [µM]	Compound
54.6	23.2	25.2	22.8	NC(=O)c1cccc2[nH]c(NC(=O)c3ccc(C(=O)N4CCC(Nc5ncc(C(F)(F)F)cn5)CC4)cc3)nc12
28.5	> 30	> 30	> 30	N#Cc1cnc(N2CCN(C(=O)c3ccc(C(=O)Nc4nc5c(C(N)=O)cccc5[nH]4)cc3)CC2)nc1
5.4	> 30	> 30	> 30	NC(=O)c1cccc2[nH]c(NC(=O)c3cccc(C(=O)N4CCC(Nc5ncc([N+](=O)[O-])cn5)CC4)c3)nc12
43	23.9	24.2	24.1	NC(=O)c1cccc2[nH]c(NC(=O)c3ccc(C(=O)N4CCN(c5ncc(C(F)(F)F)cn5)CC4)cc3)nc12
30.1	> 30	> 30	> 30	NC(=O)c1cccc2[nH]c(NC(=O)c3cccc(C(=O)N4CCC(Nc5ccc(I)cn5)CC4)c3)nc12
19.8	> 30	> 30	> 30	NC(=O)c1cccc2[nH]c(NC(=O)c3ccc(C(=O)N4CCN(c5ncc(F)cn5)CC4)cc3)nc12
48.7	21.3	23.1	24.2	CCc1cnc(NC2CCN(C(=O)c3cccc(C(=O)Nc4nc5c(C(N)=O)cccc5[nH]4)c3)CC2)nc1
32.4	25	28.7	30	NC(=O)c1cccc2[nH]c(NC(=O)c3ccc(C(=O)N4CCC(Nc5ncccn5)CC4)cc3)nc12
13.3	> 30	> 30	> 30	N#Cc1ccc(NC2CCN(C(=O)c3ccc(C(=O)Nc4nc5c(C(N)=O)cccc5[nH]4)cc3)CC2)nc1
45.2	22.9	26.3	25.8	NC(=O)c1cccc2[nH]c(NC(=O)c3ccc(C(=O)N4CCN(c5ncc(I)cn5)CC4)cc3)nc12
38.8	24.4	26.4	28.7	NC(=O)c1cccc2[nH]c(NC(=O)c3ccc(C(=O)N4CCC(Nc5ncc(F)cn5)CC4)cc3)nc12
26.7	> 30	> 30	> 30	NC(=O)c1cccc2[nH]c(NC(=O)c3ccc(C(=O)N4CCC(Nc5ccc(C(F)(F)F)cn5)CC4)cc3)nc12
55.4	17.2	21.3	19.5	NC(=O)c1cccc2[nH]c(NC(=O)c3ccc(C(=O)N4CCC(Nc5ncc(Br)cn5)CC4)cc3)nc12
29.8	> 30	> 30	> 30	NC(=O)c1cccc2[nH]c(NC(=O)c3ccc(C(=O)N4CCC(Nc5ccc(I)cn5)CC4)cc3)nc12
44.1	> 30	24.1	25.4	NC(=O)c1cccc2[nH]c(NC(=O)c3cccc(C(=O)N4CCN(c5ncc(Cl)cn5)CC4)c3)nc12
24.1	> 30	> 30	> 30	NC(=O)c1cccc2[nH]c(NC(=O)c3ccc(C(=O)N4CCC(Nc5ncc([N+](=O)[O-])cn5)CC4)cc3)nc12
25.9	> 30	> 30	> 30	NC(=O)c1cccc2[nH]c(NC(=O)c3ccc(C(=O)N4CCC(Nc5ccc(Br)cn5)CC4)cc3)nc12
32.6	> 30	> 30	> 30	N#Cc1cnc(N2CCN(C(=O)c3cccc(C(=O)Nc4nc5c(C(N)=O)cccc5[nH]4)c3)CC2)nc1
77.6	> 30	24.6	26.6	NC(=O)c1cccc2[nH]c(NC(=O)c3ccc(S(=O)(=O)N4CCC(Nc5ncc(Br)cn5)CC4)cc3)nc12
50.7	20.8	23.5	24.9	NC(=O)c1cccc2[nH]c(NC(=O)c3ccc(C(=O)N4CCC(Nc5ncc(Cl)cn5)CC4)cc3)nc12
31.5	25.6	28.9	27.4	COc1cnc(NC2CCN(C(=O)c3ccc(C(=O)Nc4nc5c(C(N)=O)cccc5[nH]4)cc3)CC2)nc1
25	> 30	> 30	> 30	NC(=O)c1cccc2[nH]c(NC(=O)c3cccc(C(=O)N4CCC(Nc5ncccn5)CC4)c3)nc12
46.4	24.6	27.5	25.4	NC(=O)c1cccc2[nH]c(NC(=O)c3cccc(C(=O)N4CCN(c5ccc(C(F)(F)F)cn5)CC4)c3)nc12

inhibition [1] [%]	IC50 (MDA-MB-436) [µM]	IC50 (MDA-MB-468) [µM]	IC50 (MDA-MB-231) [µM]	Compound
39.8	25.7	27.3	26.8	NC(=O)c1cccc2[nH]c(NC(=O)c3ccc(C(=O)N4CCN(c5ccc(C(F)(F)F)cn5)CC4)cc3)nc12
43.1	25.8	> 30	27	NC(=O)c1cccc2[nH]c(NC(=O)c3ccc(CN4CCC(Nc5ncc(Cl)cn5)CC4)cc3)nc12
16.8	> 30	> 30	> 30	NC(=O)c1cccc2[nH]c(NC(=O)c3ccc(C(=O)N4CCC(Nc5nccc(C(F)(F)F)n5)CC4)cc3)nc12
25.6	> 30	> 30	> 30	NC(=O)c1cccc2[nH]c(NC(=O)c3cccc(C(=O)N4CCC(Nc5ccc(Br)cn5)CC4)c3)nc12
30.3	> 30	> 30	> 30	NC(=O)c1cccc2[nH]c(NC(=O)c3ccc(CN4CCC(Nc5ncc(F)cn5)CC4)cc3)nc12
37.4	27.6	27.3	28.2	NC(=O)c1cccc2[nH]c(NC(=O)c3ccc(C(=O)N4CCN(c5ncc(Cl)cn5)CC4)cc3)nc12
34	> 30	27.3	26.9	NC(=O)c1cccc2[nH]c(NC(=O)c3ccc(CN4CCC(Nc5ncc(C(F)(F)F)cn5)CC4)cc3)nc12
69.9	27.1	25.3	26.7	NC(=O)c1cccc2[nH]c(NC(=O)c3ccc(S(=O)(=O)N4CCC(Nc5ncc(C(F)(F)F)cn5)CC4)cc3)nc12
27.5	> 30	> 30	> 30	N#Cc1cnc(NC2CCN(C(=O)c3ccc(C(=O)Nc4nc5c(C(N)=O)cccc5[nH]4)cc3)CC2)nc1
46.2	22.1	23.7	24.5	NC(=O)c1cccc2[nH]c(NC(=O)c3cccc(C(=O)N4CCN(c5ncc(Br)cn5)CC4)c3)nc12
44.1	22.3	24.3	24.5	CCc1cnc(NC2CCN(C(=O)c3ccc(C(=O)Nc4nc5c(C(N)=O)cccc5[nH]4)cc3)CC2)nc1
31.6	> 30	> 30	> 30	NC(=O)c1cccc2[nH]c(NC(=O)c3cccc(C(=O)N4CCN(c5ncc(F)cn5)CC4)c3)nc12
40.8	28.9	27.7	> 30	NC(=O)c1cccc2[nH]c(NC(=O)c3ccc(CN4CCC(Nc5ncc(I)cn5)CC4)cc3)nc12
1.3	> 30	> 30	> 30	Cc1cnc(NC2CCN(C(=O)c3cccc(C(=O)Nc4nc5c(C(N)=O)cccc5[nH]4)c3)CC2)nc1
49.6	20.9	21.8	20.1	NC(=O)c1cccc2[nH]c(NC(=O)c3cccc(C(=O)N4CCN(c5ncc(I)cn5)CC4)c3)nc12
41.6	23.6	25.1	24.2	NC(=O)c1cccc2[nH]c(NC(=O)c3ccc(C(=O)N4CCN(c5ncc(Br)cn5)CC4)cc3)nc12
61.7	16.5	18.5	19.3	NC(=O)c1cccc2[nH]c(NC(=O)c3ccc(C(=O)N4CCC(Nc5ncc(I)cn5)CC4)cc3)nc12
36.4	22.7	27.9	25.2	COc1cnc(NC2CCN(C(=O)c3cccc(C(=O)Nc4nc5c(C(N)=O)cccc5[nH]4)c3)CC2)nc1
19.8	> 30	> 30	> 30	NC(=O)c1cccc2[nH]c(NC(=O)c3cccc(C(=O)N4CCC(Nc5ccc(C(F)(F)F)cn5)CC4)c3)nc12
35.6	23	27.6	25.5	Cc1cnc(NC2CCN(C(=O)c3ccc(C(=O)Nc4nc5c(C(N)=O)cccc5[nH]4)cc3)CC2)nc1
52.1	17.8	19.3	18.9	NC(=O)c1cccc2[nH]c(NC(=O)c3cccc(C(=O)N4CCN(c5ncc(C(F)(F)F)cn5)CC4)c3)nc12
45.4	24.2	25.7	26.5	NC(=O)c1cccc2[nH]c(NC(=O)c3ccc(CN4CCC(Nc5ncc(Br)cn5)CC4)cc3)nc12
21.7	> 30	> 30	> 30	N#Cc1cnc(NC2CCN(C(=O)c3cccc(C(=O)Nc4nc5c(C(N)=O)cccc5[nH]4)c3)CC2)nc1
